The assay has as its target CDK2/Cyclin E1 full length (Homo sapiens (Human), UniProt P24941). Put plainly: CDK2/Cyclin E1 full length mobility shift assay. It counts as biochemical.
For the compound `CC[C@H](C)CNC(=O)O[C@@H]1CC[C@H](c2cc(NC(=O)Cc3cnc(C)o3)n[nH]2)C1` [Example 416, (1R,3S)-3-(3-{[(2-methyl-1,3-oxazol-5-yl)acetyl]amino}-1H-pyrazol-5-yl)cyclopentyl [(2S)-2-methylbutyl]carbamate], the Ki turned out to be 2.27 nM. Take `CC(C)(C)CNC(=O)O[C@@H]1CC[C@H](c2cc(NC(=O)Cc3ccno3)n[nH]2)C1` [Example 418, (1R,3S)-3-{3-[(1,2-oxazol-5-ylacetyl)amino]-1H-pyrazol-5-yl}cyclopentyl (2,2-dimethylpropyl)carbamate]: the Ki amounted to 2.69 nM. In the case of `CC1(NC(=O)O[C@@H]2CC[C@H](c3cc(NC(=O)Cc4ccon4)n[nH]3)C2)CC1` [Example 419, (1R,3S)-3-{3-[(1,2-oxazol-3-ylacetyl)amino]-1H-pyrazol-5-yl}cyclopentyl (1-methylcyclopropyl)carbamate], the Ki turned out to be 0.36 nM. With `CC1(NC(=O)O[C@@H]2CC[C@H](c3cc(NC(=O)Cc4ccccn4)n[nH]3)C2)CC1` [Example 420, (1R,3S)-3-{3-[(pyridin-2-ylacetyl)amino]-1H-pyrazol-5-yl}cyclopentyl (1-methylcyclopropyl)carbamate], the Ki is 0.54 nM.

In the case of `Cn1ccc(CC(=O)Nc2cc([C@H]3CC[C@@H](OC(=O)NC4(C)CC4)C3)[nH]n2)n1` [Example 421, (1R,3S)-3-(3-{[(1-methyl-1H-pyrazol-3-yl)acetyl]amino}-1H-pyrazol-5-yl)cyclopentyl (1-methylcyclopropyl)carbamate], the inhibitory constant (Ki) came to 0.94 nM. For the compound `Cc1coc(CC(=O)Nc2cc([C@H]3CC[C@@H](OC(=O)NC4(C)CC4)C3)[nH]n2)n1` [Example 422, (1R,3S)-3-(3-{[(4-methyl-1,3-oxazol-2-yl)acetyl]amino}-1H-pyrazol-5-yl)cyclopentyl (1-methylcyclopropyl)carbamate], the Ki amounted to 0.55 nM.

For `CC1(NC(=O)O[C@@H]2CC[C@H](c3cc(NC(=O)Cc4cscn4)n[nH]3)C2)CC1` [Example 423, (1R,3S)-3-{3-[(1,3-thiazol-4-ylacetyl)amino]-1H-pyrazol-5-yl}cyclopentyl (1-methylcyclopropyl)carbamate], the Ki is 0.6 nM. As for `Cc1ccnc(CC(=O)Nc2cc([C@H]3CC[C@@H](OC(=O)NC4(C)CC4)C3)[nH]n2)c1` [Example 425, (1R,3S)-3-(3-{[(4-methylpyridin-2-yl)acetyl]amino}-1H-pyrazol-5-yl)cyclopentyl (1-methylcyclopropyl)carbamate], the figure is 1.05 nM.

Take `Cc1cccnc1CC(=O)Nc1cc([C@H]2CC[C@@H](OC(=O)NC3(C)CC3)C2)[nH]n1` [Example 427, (1R,3S)-3-(3-{[(3-methylpyridin-2-yl)acetyl]amino}-1H-pyrazol-5-yl)cyclopentyl (1-methylcyclopropyl)carbamate]: the Ki amounted to 1.78 nM. The result for `CC1(NC(=O)O[C@@H]2CC[C@H](c3cc(NC(=O)Cc4ncccc4F)n[nH]3)C2)CC1` [Example 429, (1R,3S)-3-(3-{[(3-fluoropyridin-2-yl)acetyl]amino}-1H-pyrazol-5-yl)cyclopentyl (1-methylcyclopropyl)carbamate] reads 1.15 nM. The result for `CC1(NC(=O)O[C@@H]2CC[C@H](c3cc(NC(=O)Cc4ccc(F)cn4)n[nH]3)C2)CC1` [Example 430, (1R,3S)-3-(3-{[(5-fluoropyridin-2-yl)acetyl]amino}-1H-pyrazol-5-yl)cyclopentyl (1-methylcyclopropyl)carbamate] reads 1.14 nM; that for `Cc1nc(CC(=O)Nc2cc([C@H]3CC[C@@H](OC(=O)NC4(C)CC4)C3)[nH]n2)cs1` [Example 431, (1R,3S)-3-(3-{[(2-methyl-1,3-thiazol-4-yl)acetyl]amino}-1H-pyrazol-5-yl)cyclopentyl (1-methylcyclopropyl)carbamate], 1.19 nM; that for `CC1(NC(=O)O[C@@H]2CC[C@H](c3cc(NC(=O)Cc4coc(C5CC5)n4)n[nH]3)C2)CC1` [Example 432, (1R,3S)-3-(3-{[(2-cyclopropyl-1,3-oxazol-4-yl)acetyl]amino}-1H-pyrazol-5-yl)cyclopentyl (1-methylcyclopropyl)carbamate], 1.25 nM. `Cc1ccc(F)c(CC(=O)Nc2cc([C@H]3CC[C@@H](OC(=O)NC4(C)CC4)C3)[nH]n2)n1` [Example 435, (1R,3S)-3-(3-{[(3-fluoro-6-methylpyridin-2-yl)acetyl]amino}-1H-pyrazol-5-yl)cyclopentyl (1-methylcyclopropyl)carbamate]: the Ki was 1.49 nM. The result for `CC(C)n1cc(CC(=O)Nc2cc([C@H]3CC[C@@H](OC(=O)NC4(C)CC4)C3)[nH]n2)nn1` [Example 436, (1R,3S)-3-[3-({[1-(propan-2-yl)-1H-1,2,3-triazol-4-yl]acetyl}amino)-1H-pyrazol-5-yl]cyclopentyl (1-methylcyclopropyl)carbamate] reads 3.3 nM; that for `Cc1cnc(CC(=O)Nc2cc([C@H]3CC[C@@H](OC(=O)NC4(C)CC4)C3)[nH]n2)c(Cl)c1` [Example 438, (1R,3S)-3-(3-{[(3-chloro-5-methylpyridin-2-yl)acetyl]amino}-1H-pyrazol-5-yl)cyclopentyl (1-methylcyclopropyl)carbamate], 2.5 nM; that for `Cc1cc(Cl)cnc1CC(=O)Nc1cc([C@H]2CC[C@@H](OC(=O)NC3(C)CC3)C2)[nH]n1` [Example 439, (1R,3S)-3-(3-{[(5-chloro-3-methylpyridin-2-yl)acetyl]amino}-1H-pyrazol-5-yl)cyclopentyl (1-methylcyclopropyl)carbamate], 2.37 nM. In the case of `Cc1cc(CC(=O)Nc2cc([C@H]3CC[C@@H](OC(=O)NC4(C)CC4)C3)[nH]n2)ncc1Cl` [Example 440, (1R,3S)-3-(3-{[(5-chloro-4-methylpyridin-2-yl)acetyl]amino}-1H-pyrazol-5-yl)cyclopentyl (1-methylcyclopropyl)carbamate], the Ki is 1.47 nM. For `Cc1ccnc(CC(=O)Nc2cc([C@H]3CC[C@@H](OC(=O)NC4(C)CC4)C3)[nH]n2)c1Cl` [Example 441, (1R,3S)-3-(3-{[(3-chloro-4-methylpyridin-2-yl)acetyl]amino}-1H-pyrazol-5-yl)cyclopentyl (1-methylcyclopropyl)carbamate], the Ki is 1.42 nM.

Consider `Cc1nc(CC(=O)Nc2cc([C@H]3CC[C@@H](OC(=O)NC4(C)CC4)C3)[nH]n2)ccc1Cl` [Example 442, (1R,3S)-3-(3-{[(5-chloro-6-methylpyridin-2-yl)acetyl]amino}-1H-pyrazol-5-yl)cyclopentyl (1-methylcyclopropyl)carbamate], for which the Ki was determined as 0.37 nM. Turning to `CC1(NC(=O)O[C@@H]2CC[C@H](c3cc(NC(=O)Cc4cc(C(F)F)ccn4)n[nH]3)C2)CC1` [Example 443, (1R,3S)-3-[3-({[4-(difluoromethyl)pyridin-2-yl]acetyl}amino)-1H-pyrazol-5-yl]cyclopentyl (1-methylcyclopropyl)carbamate], the Ki worked out at 0.36 nM. Turning to `CC1(NC(=O)O[C@@H]2CC[C@H](c3cc(NC(=O)Cc4cc(C(F)(F)F)ccn4)n[nH]3)C2)CC1` [Example 444, (1R,3S)-3-[3-({[4-(trifluoromethyl)pyridin-2-yl]acetyl}amino)-1H-pyrazol-5-yl]cyclopentyl (1-methylcyclopropyl)carbamate], the Ki was determined as 1.41 nM. As to `CC1(NC(=O)O[C@@H]2CC[C@H](c3cc(NC(=O)Cc4ccc(C(F)(F)F)cn4)n[nH]3)C2)CC1` [Example 445, (1R,3S)-3-[3-({[5-(trifluoromethyl)pyridin-2-yl]acetyl}amino)-1H-pyrazol-5-yl]cyclopentyl (1-methylcyclopropyl)carbamate], the Ki stood at 0.6 nM. The result for `CC1(NC(=O)O[C@@H]2CC[C@H](c3cc(NC(=O)Cc4cn(CC(F)(F)F)nn4)n[nH]3)C2)CC1` [Example 446, (1R,3S)-3-[3-({[1-(2,2,2-trifluoroethyl)-1H-1,2,3-triazol-4-yl]acetyl}amino)-1H-pyrazol-5-yl]cyclopentyl (1-methylcyclopropyl)carbamate] reads 1.7 nM; that for `CCC1(NC(=O)O[C@@H]2CC[C@H](c3cc(NC(=O)Cc4ncc(C)o4)n[nH]3)C2)CC1` [Example 448, (1R,3S)-3-(3-{[(5-methyl-1,3-oxazol-2-yl)acetyl]amino}-1H-pyrazol-5-yl)cyclopentyl (1-ethylcyclopropyl)carbamate], 0.29 nM. For the compound `CCC1(NC(=O)O[C@@H]2CC[C@H](c3cc(NC(=O)Cc4cnc(C)cn4)n[nH]3)C2)CC1` [Example 449, (1R,3S)-3-(3-{[(5-methylpyrazin-2-yl)acetyl]amino}-1H-pyrazol-5-yl)cyclopentyl (1-ethylcyclopropyl)carbamate], the Ki worked out at 0.39 nM. As for `CCC1(NC(=O)O[C@@H]2CC[C@H](c3cc(NC(=O)Cc4cnc(OC)cn4)n[nH]3)C2)CC1` [Example 450, (1R,3S)-3-(3-{[(5-methoxypyrazin-2-yl)acetyl]amino}-1H-pyrazol-5-yl)cyclopentyl (1-ethylcyclopropyl)carbamate], the figure is 0.38 nM; as for `O=C(Cc1ccon1)Nc1cc([C@H]2CC[C@@H](OC(=O)NC3(CC(F)(F)F)CC3)C2)[nH]n1` [Example 451, (1R,3S)-3-{3-[(1,2-oxazol-3-ylacetyl)amino]-1H-pyrazol-5-yl}cyclopentyl [1-(2,2,2-trifluoroethyl)cyclopropyl] carbamate], 0.46 nM; as for `Cc1ccc(C(=O)Nc2cc([C@H]3CC[C@@H](OC(=O)NC4(CC(F)(F)F)CC4)C3)[nH]n2)cn1` [Example 452, (1R,3S)-3-(3-{[(6-methylpyridin-3-yl)carbonyl]amino}-1H-pyrazol-5-yl)cyclopentyl [1-2,2,2-trifluoroethyl)cyclopropyl] carbamate], 0.51 nM.

Take `Cc1cc(CC(=O)Nc2cc([C@H]3CC[C@@H](OC(=O)NC4(CC(F)(F)F)CC4)C3)[nH]n2)on1` [Example 453, (1R,3S)-3-(3-{[(3-methyl-1,2-oxazol-5-yl)acetyl]amino}-1H-pyrazol-5-yl)cyclopentyl [1-(2,2,2-trifluoroethyl)cyclopropyl]carbamate]: the Ki came out at 0.29 nM.

With `Cc1cnc(CC(=O)Nc2cc([C@H]3CC[C@@H](OC(=O)NC4(CC(F)(F)F)CC4)C3)[nH]n2)o1` [Example 454, (1R,3S)-3-(3-{[(5-methyl-1,3-oxazol-2-yl)acetyl]amino}-1H-pyrazol-5-yl)cyclopentyl[1-(2,2,2-trifluoroethyl)cyclopropyl]carbamate], the Ki stood at 0.48 nM.

The term Ki denotes the dissociation constant of the complex between target and ligand, obtained from inhibition or displacement.

Values taken from patent publication US11014911B2, “CDK2 inhibitors” (Pfizer Inc., priority 2019, dated 2021).
